Measured values published in US11149011B2, “Compounds and methods for IDO and TDO modulation, and indications therefor” (Plexxikon Inc., priority 2018, dated 2021).

What was measured:
TDO = target: T1, TDO (Homo sapiens, UniProt P48775); assay: TDO enzymatic assay; settings: geometric mean; read-out: TDO GMean: IC50 (μM) (Biochemical Assay)
T1 construct: His tag (N); made in house; host or cells: E. coli
In short: (§1)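 Kynurenine formed after TCA hydrolysis (30 min, 50 °C) was quantified relative to full-reaction and no-enzyme controls, and IC50s were fitted. TDO reactions used 1 nM enzyme with 350 μM Trp and 0.4 μM methylene blue for 70 min; IDO reactions used 6 nM enzyme, 10 μM Trp, 5 μM methylene blue for 20 min; both at pH 6.5, room temperature.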

IDO1 = target: T2, IDO1 (Homo sapiens, UniProt P14902); assay: IDO enzymatic assay; assay type: biochemical; settings: geometric mean; read-out: IDO1 GMean: IC50 (μM) (Biochemical Assay)
T2 construct: His tag (N); made in house; host or cells: E. coli
In short: as §1

[1] = target: T3, IDO1-expressing HEK293 cell clones (Homo sapiens, UniProt P14902); assay: Cell based kynurenine assay, IDO1-expressing HEK293 cell clones; settings: HEK293 cells, 24 hours of incubation, geometric mean; read-out: HEK293 IDO1 Kynurenine GMean IC50 (μM) (Cellular Assay)
T3 construct: expressed in transfected cells; host or cells: HEK293
In short: (§2)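 IC50s come from nonlinear regression of % inhibition of kynurenine in culture supernatant after 24 hours of compound exposure. Controls were 0.2% DMSO-treated cells and media alone. Cells were stable human IDO1- or TDO-expressing HEK293 clones (CMV promoter), plated at 2.5×10^4 per well.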

[2] = target: T4, TDO-expressing HEK293 cell clones (Homo sapiens, UniProt P48775); assay: Cell based kynurenine assay, TDO-expressing HEK293 cell clones; settings: HEK293 cells, 24 hours of incubation, geometric mean; read-out: HEK293 TDO Kynurenine GMean IC50 (μM) (Cellular Assay)
T4 construct: expressed in transfected cells; host or cells: HEK293
In short: as §2

T2 sequence (P14902 whole entry): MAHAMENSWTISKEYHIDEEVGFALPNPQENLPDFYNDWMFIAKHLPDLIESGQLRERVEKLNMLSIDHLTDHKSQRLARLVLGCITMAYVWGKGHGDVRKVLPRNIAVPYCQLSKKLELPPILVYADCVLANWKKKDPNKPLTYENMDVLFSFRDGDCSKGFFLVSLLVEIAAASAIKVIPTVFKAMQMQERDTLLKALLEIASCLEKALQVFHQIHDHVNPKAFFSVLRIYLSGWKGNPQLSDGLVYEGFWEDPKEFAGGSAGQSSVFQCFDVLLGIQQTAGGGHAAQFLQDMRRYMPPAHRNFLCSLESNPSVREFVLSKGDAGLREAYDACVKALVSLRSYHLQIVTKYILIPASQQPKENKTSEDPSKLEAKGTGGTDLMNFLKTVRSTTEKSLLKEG
T3 sequence (P14902 whole entry): as above
T1 sequence (P48775 whole entry): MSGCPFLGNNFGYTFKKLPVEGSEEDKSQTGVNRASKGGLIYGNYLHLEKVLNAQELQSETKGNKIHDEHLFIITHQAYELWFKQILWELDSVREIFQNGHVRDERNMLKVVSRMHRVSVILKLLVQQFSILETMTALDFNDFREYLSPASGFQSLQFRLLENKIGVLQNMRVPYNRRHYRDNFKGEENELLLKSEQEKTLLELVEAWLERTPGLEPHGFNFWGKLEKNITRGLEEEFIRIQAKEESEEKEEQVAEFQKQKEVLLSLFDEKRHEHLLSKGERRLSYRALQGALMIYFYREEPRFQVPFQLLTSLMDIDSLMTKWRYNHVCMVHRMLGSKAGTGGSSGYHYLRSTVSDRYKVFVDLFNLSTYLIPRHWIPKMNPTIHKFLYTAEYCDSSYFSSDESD
T4 sequence (P48775 whole entry): as above

IC50 (TDO)	IC50 (IDO1)	IC50 [1]	IC50 [2]	Structure (SMILES)
0.0001 to 10 µM	0.0001 to 10 µM	> 10 µM	0.0001 to 10 µM	CCS(=O)(=O)N1CCC(C(C)(C)C(O)c2cc(Cl)cc3[nH]ncc23)CC1 (centres unmarked) [Compound P-0072, 1-(6-chloro-1H-indazol-4-yl)-2-(1-(ethylsulfonyl)piperidin-4-yl)-2-methylpropan-1-ol]
0.0001 to 10 µM	0.0001 to 10 µM	0.0001 to 10 µM	0.0001 to 10 µM	CN(O)C(=O)N1CCC(C(C)(C)[C@H](O)c2cc(Cl)cc3cn[nH]c23)CC1 [Compound P-0129, (S)-4-(1-(5-chloro-1H-indazol-7-yl)-1-hydroxy-2-methylpropan-2-yl)-N-hydroxy-N-methylpiperidine-1-carboxamide]
0.0001 to 10 µM	0.0001 to 10 µM	> 10 µM	0.0001 to 10 µM	CC(C)(C1CCN(C(=O)NCC#N)CC1)C(O)c1cc(Cl)cc2[nH]ncc12 (centres unmarked) [Compound P-0087, 4-(1-(6-chloro-1H-indazol-4-yl)-1-hydroxy-2-methylpropan-2-yl)-N-(cyanomethyl)piperidine-1-carboxamide]
0.0001 to 10 µM	0.0001 to 10 µM	0.0001 to 10 µM	0.0001 to 10 µM	OC1(c2cc(Cl)cc3cn[nH]c23)CC(C2CC2)(C2CC2)C1 [Compound P-0108, 1-(5-chloro-1H-indazol-7-yl)-3,3-dicyclopropylcyclobutan-1-ol]
0.0001 to 10 µM	0.0001 to 10 µM	0.0001 to 10 µM	> 10 µM	CC(C)(C1CCN(C(=O)Nc2ccc(Cl)nc2)CC1)[C@H](O)c1cc(Cl)cc2cn[nH]c12 [Compound P-0032, (S)-4-(1-(5-chloro-1H-indazol-7-yl)-1-hydroxy-2-methylpropan-2-yl)-N-(6-chloropyridin-3-yl)piperidine-1-carboxamide]
0.0001 to 10 µM	0.0001 to 10 µM	0.0001 to 10 µM	0.0001 to 10 µM	N#CCCCNC(=O)N1CCC(C(F)(F)C(=O)c2c(F)c(Cl)cc3cn[nH]c23)CC1 [Compound P-0042, 4-(2-(5-chloro-6-fluoro-1H-indazol-7-yl)-1,1-difluoro-2-oxoethyl)-N-(3-cyanopropyl)piperidine-1-carboxamide]
0.0001 to 10 µM	0.0001 to 10 µM	0.0001 to 10 µM	0.0001 to 10 µM	CC(C)(C1CCN(C(=O)NCC(F)F)CC1)C(O)c1cc(Cl)cc2[nH]ncc12 (centres unmarked) [Compound P-0091, 4-(1-(6-chloro-1H-indazol-4-yl)-1-hydroxy-2-methylpropan-2-yl)-N-(2,2-difluoroethyl)piperidine-1-carboxamide]
0.0001 to 10 µM	0.0001 to 10 µM	0.0001 to 10 µM	0.0001 to 10 µM	CC(C)(C1CCN(C(=O)NC2CCOCC2)CC1)C(O)c1cc(Cl)cc2[nH]ncc12 (centres unmarked) [Compound P-0079, 4-(1-(6-chloro-1H-indazol-4-yl)-1-hydroxy-2-methylpropan-2-yl)-N-(tetrahydro-2H-pyran-4-yl)piperidine-1-carboxamide]
0.0001 to 10 µM	0.0001 to 10 µM	0.0001 to 10 µM	> 10 µM	CS(=O)(=O)CCNC(=O)N1CCC(C(F)(F)C(=O)c2c(F)c(Cl)cc3cn[nH]c23)CC1 [Compound P-0038, 4-(2-(5-chloro-6-fluoro-1H-indazol-7-yl)-1,1-difluoro-2-oxoethyl)-N-(2-(methylsulfonyl)ethyl)piperidine-1-carboxamide]
0.0001 to 10 µM	0.0001 to 10 µM	> 10 µM	0.0001 to 10 µM	CCS(=O)(=O)N1CCC(C(C)(C)[C@H](O)c2cc(Cl)cc3[nH]ncc23)CC1 [Compound P-0147, (S)-1-(6-chloro-1H-indazol-4-yl)-2-(1-(ethylsulfonyl)piperidin-4-yl)-2-methylpropan-1-ol]
0.0001 to 10 µM	0.0001 to 10 µM	0.0001 to 10 µM	0.0001 to 10 µM	CC(C)(C1CCN(C(=O)Nc2ccc(C#N)nc2)CC1)[C@H](O)c1cc(Cl)cc2cn[nH]c12 [Compound P-0120, (S)-4-(1-(5-chloro-1H-indazol-7-yl)-1-hydroxy-2-methylpropan-2-yl)-N-(6-cyanopyridin-3-yl)piperidine-1-carboxamide]
0.0001 to 10 µM	0.0001 to 10 µM	0.0001 to 10 µM	0.0001 to 10 µM	CC(C)(C1CCN(C(=O)N[C@@H]2CCOC2)CC1)C(O)c1cc(Cl)cc2[nH]ncc12 (stereo partly drawn) [Compound P-0113, 4-(1-(6-chloro-1H-indazol-4-yl)-1-hydroxy-2-methylpropan-2-yl)-N-((R)-tetrahydrofuran-3-yl)piperidine-1-carboxamide]
0.0001 to 10 µM	0.0001 to 10 µM	0.0001 to 10 µM	0.0001 to 10 µM	O=C(NCC1CC1)N1CCC(C(F)(F)C(=O)c2c(F)c(Cl)cc3cn[nH]c23)CC1 [Compound P-0036, 4-(2-(5-chloro-6-fluoro-1H-indazol-7-yl)-1,1-difluoro-2-oxoethyl)-N-(cyclopropylmethyl)piperidine-1-carboxamide]
0.0001 to 10 µM	0.0001 to 10 µM	0.0001 to 10 µM	0.0001 to 10 µM	C[C@H](NC(=O)N1CCC(C(C)(C)[C@H](O)c2cc(Cl)cc3cn[nH]c23)CC1)c1ccccn1 [Compound P-0021, 4-((S)-1-(5-chloro-1H-indazol-7-yl)-1-hydroxy-2-methylpropan-2-yl)-N-((S)-1-(pyridin-2-yl)ethyl)piperidine-1-carboxamide]
0.0001 to 10 µM	0.0001 to 10 µM	0.0001 to 10 µM	> 10 µM	N#CCC(=O)N1CCC(C(F)(F)C(=O)c2c(F)c(Cl)cc3cn[nH]c23)CC1 [Compound P-0033, 3-(4-(2-(5-chloro-6-fluoro-1H-indazol-7-yl)-1,1-difluoro-2-oxoethyl)piperidin-1-yl)-3-oxopropanenitrile]
0.0001 to 10 µM	0.0001 to 10 µM	> 10 µM	0.0001 to 10 µM	CONC(=O)N1CCC(C(C)(C)C(O)c2cc(Cl)cc3[nH]ncc23)CC1 (centres unmarked) [Compound P-0093, 4-(1-(6-chloro-1H-indazol-4-yl)-1-hydroxy-2-methylpropan-2-yl)-N-methoxypiperidine-1-carboxamide]
0.0001 to 10 µM	0.0001 to 10 µM	0.0001 to 10 µM	0.0001 to 10 µM	CCCS(=O)(=O)N1CCC(C(C)(C)C(O)c2cc(Cl)cc3[nH]ncc23)CC1 (centres unmarked) [Compound P-0071]
